The results in this text go back to patent US20240216342A1, “BLOOD CARNITINE-INCREASING AGENT” (KOWA COMPANY, LTD., priority 2021, published 2024).

Common to all, as to type: in vivo, human
Assay [1] in a line: Blood free carnitine in a fasting state, compound A given orally to dyslipidemia patients for 4 weeks (Example 1). The settings on record: for Ratio of change in free carnitine after administration for 4 weeks with respect to value before administration (at 0 weeks): fasting state, oral. The method, then: A study was conducted on an action on blood carnitine in oral administration of the compound A to a dyslipidemia patient at 0.2 to 0.8 mg a day for 4 weeks. For the administration of the compound A, an IR preparation (0.2 mg/day, twice a day), 0.4 mg of a CR preparation (once a day) and 0.8 mg of a CR preparation (once a day) were used, and the administration was performed before or after a meal. Table 1 and FIG. 1 show a ratio of change in concentration of free carnitine in blood in a fasting state in administration of the compound A to the dyslipidemia patient for 4 weeks with respect to the value before administration (at 0 weeks) in Example 1.

Assay [2] in a line: Blood free carnitine after meal (high-fat food) versus before meal, compound A given to dyslipidemia patients for 4 weeks (Example 1). The method, then: A study was conducted on an action on blood carnitine in oral administration of the compound A to a dyslipidemia patient at 0.2 to 0.8 mg a day for 4 weeks. For the administration of the compound A, an IR preparation (0.2 mg/day, twice a day), 0.4 mg of a CR preparation (once a day) and 0.8 mg of a CR preparation (once a day) were used, and the administration was performed before or after a meal. Table 2 and FIG. 2 show a process of an amount of change in free carnitine in blood after meal (after intake of high-fat food) with respect to a value before meal in administration of the compound A to the dyslipidemia patient for 4 weeks in Example 1.

The nature of assay [3]: Blood free carnitine in a fasting state, compound A given orally to NAFLD patients for 48 weeks versus placebo (Example 2). The settings on record: IR 0.4 mg/day. The procedure:
A study was conducted on an action on blood carnitine in oral administration of the compound A to a non-alcoholic fatty liver disease (NAFLD) patient at 0.4 mg a day for 48 weeks. For the administration of the compound A, an IR preparation (0.4 mg/day, twice a day) was used, and the administration was performed in a fasting state. A comparison was made with placebo administration. Table 3 and FIG. 3 show a process of a ratio of change in concentration of free carnitine in blood in a fasting state in administration of the compound A (IR 0.4 mg/day) to the NAFLD patient for 48 weeks with respect to the value before administration (at 0 weeks) in Example 2.

As to `CC[C@@H](Oc1cccc(CN(CCCOc2ccc(OC)cc2)c2nc3ccccc3o2)c1)C(=O)O` [Compound A, (R)-2-[3-[[N-(benzoxazol-2-yl)-N-3-(4-methoxyphenoxy)propyl]aminomethyl]phenoxy]butyric acid], the “Effect on concentration of free carnitine in blood in a fasting state (in words)” value in assay [1] (0.2 to 0.8 mg a day) is “increased the concentration of free carnitine in blood in a dose-dependent manner”. Besides, the results for the “Ratio of change in free carnitine after administration for 4 weeks with respect to value before administration (at 0 weeks)” value in assay [1] (CR preparation 0.4 mg/day), in assay [1] (CR preparation 0.8 mg/day) and in assay [1] (IR preparation 0.2 mg/day) were 19.5, 23.71 and 11.82, respectively. In assay [2] (0.2 to 0.8 mg a day, 4 weeks), the “Effect on concentration of free carnitine in blood after meal compared to before meal (in words)” value was “increased the concentration of free carnitine in blood after meal as compared to the concentration before meal”. For the same compound, the “Amount of change in free carnitine in blood after meal with respect to value before meal, average” value in assay [2] (CR 0.4 mg/day (QD) for 4 weeks, 1 h after high-fat meal) came out at 2.78 µmol/L; in assay [2] (CR 0.4 mg/day (QD) for 4 weeks, 2.5 h after high-fat meal), 2.65 µmol/L; in assay [2] (CR 0.4 mg/day (QD) for 4 weeks, 4.5 h after high-fat meal), 2.25 µmol/L; in assay [2] (CR 0.8 mg/day (QD) for 4 weeks, 1 h after high-fat meal), 3.11 µmol/L; in assay [2] (CR 0.8 mg/day (QD) for 4 weeks, 2.5 h after high-fat meal) it was 3.26 µmol/L; in assay [2] (CR 0.8 mg/day (QD) for 4 weeks, 4.5 h after high-fat meal), 2.92 µmol/L. In addition, the “Amount of change in free carnitine in blood after meal with respect to value before meal, average” value in assay [2] (IR 0.2 mg/day (BID) for 4 weeks, 1 h after high-fat meal) came to 2.72 µmol/L; in assay [2] (IR 0.2 mg/day (BID) for 4 weeks, 2.5 h after high-fat meal) it was 2.19 µmol/L; in assay [2] (IR 0.2 mg/day (BID) for 4 weeks, 4.5 h after high-fat meal), 1.79 µmol/L. Further, in assay [3], the “Time of administration at which the free carnitine increasing action reached the maximum value” stood at 12 weeks. Besides, the “Ratio of change in concentration of free carnitine in blood in a fasting state with respect to value before administration (0 weeks), average” value in assay [3] (4 weeks) amounted to 20.0; in assay [3] (12 weeks) it was 24.7; in assay [3] (24 weeks) it was 24.5; in assay [3] (48 weeks), 20.9. The “Effect on concentration of free carnitine in blood in a fasting state compared to placebo (in words)” value in assay [3] (48 weeks) is given as “increased the concentration of free carnitine in blood in a fasting state as compared to placebo administration”.
